This is an account of results in patent US20180217163A1, “TREATMENT OF NEURODEGENERATIVE CONDITIONS USING PKC ACTIVATORS AFTER DETERMINING THE PRESENCE OF THE APOE4 ALLELE” (priority 2015, published 2018).

For series [1] the following is noted: cited from earlier work.
Series [2] deals with T1, PKCε (Homo sapiens, UniProt Q02156).
T1 construct: from tissue; host or cells: blood of trial subjects
T1 sequence (Q02156 1-737): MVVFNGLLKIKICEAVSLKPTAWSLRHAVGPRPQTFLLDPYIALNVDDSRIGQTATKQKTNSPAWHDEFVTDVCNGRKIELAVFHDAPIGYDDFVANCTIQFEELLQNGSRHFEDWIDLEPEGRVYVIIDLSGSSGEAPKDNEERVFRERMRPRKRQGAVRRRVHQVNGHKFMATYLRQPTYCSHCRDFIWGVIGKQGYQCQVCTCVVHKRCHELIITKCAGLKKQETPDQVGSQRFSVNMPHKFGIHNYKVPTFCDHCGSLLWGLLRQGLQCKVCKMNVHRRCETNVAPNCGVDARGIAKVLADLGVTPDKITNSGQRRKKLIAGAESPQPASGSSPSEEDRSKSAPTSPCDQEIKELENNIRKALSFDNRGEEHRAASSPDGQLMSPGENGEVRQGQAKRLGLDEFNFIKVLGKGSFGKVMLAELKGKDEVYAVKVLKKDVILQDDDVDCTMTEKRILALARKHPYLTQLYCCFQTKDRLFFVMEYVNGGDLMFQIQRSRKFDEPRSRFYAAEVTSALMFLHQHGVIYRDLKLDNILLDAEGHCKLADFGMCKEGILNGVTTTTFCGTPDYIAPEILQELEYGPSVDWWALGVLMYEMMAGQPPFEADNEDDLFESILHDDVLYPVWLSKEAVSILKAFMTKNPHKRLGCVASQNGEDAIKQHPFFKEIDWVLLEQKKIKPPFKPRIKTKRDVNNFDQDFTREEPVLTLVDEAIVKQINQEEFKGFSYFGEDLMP
Put plainly: Phase IIa clinical trial: PKCε levels after bryostatin. It counts as in vivo.

The target in series [3] is T2, PKCε (Mus musculus, UniProt P16054).
T2 construct: from tissue; host or cells: mouse brain
T2 sequence (P16054 1-737): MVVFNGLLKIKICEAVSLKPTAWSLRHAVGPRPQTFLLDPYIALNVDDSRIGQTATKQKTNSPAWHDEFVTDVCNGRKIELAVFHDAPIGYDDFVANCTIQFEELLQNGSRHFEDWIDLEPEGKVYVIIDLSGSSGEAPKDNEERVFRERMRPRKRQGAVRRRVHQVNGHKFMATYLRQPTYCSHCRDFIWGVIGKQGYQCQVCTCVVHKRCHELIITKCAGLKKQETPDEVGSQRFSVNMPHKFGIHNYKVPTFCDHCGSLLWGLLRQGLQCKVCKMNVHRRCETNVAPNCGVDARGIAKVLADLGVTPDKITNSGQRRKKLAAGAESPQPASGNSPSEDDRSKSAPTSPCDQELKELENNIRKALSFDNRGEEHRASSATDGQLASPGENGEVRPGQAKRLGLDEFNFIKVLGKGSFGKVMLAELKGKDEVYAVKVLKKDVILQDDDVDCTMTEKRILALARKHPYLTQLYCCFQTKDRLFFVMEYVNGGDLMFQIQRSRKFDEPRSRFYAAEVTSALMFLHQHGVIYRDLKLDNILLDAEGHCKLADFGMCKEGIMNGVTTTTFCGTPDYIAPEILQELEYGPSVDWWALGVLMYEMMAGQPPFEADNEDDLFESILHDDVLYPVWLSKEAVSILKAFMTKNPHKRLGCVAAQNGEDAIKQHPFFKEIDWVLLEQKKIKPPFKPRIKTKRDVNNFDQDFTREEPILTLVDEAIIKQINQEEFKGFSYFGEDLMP
Put plainly: PKCε activation in brain of mice (FIG. 11). It counts as in vivo. The conditions noted are these: single intravenous injection.

A further series has as its system PKCε mRNA. The series can be described thus: PKCε mRNA expression in SH-SY5Y cells (qRT-PCR). Type of series: cell-based, human. The settings on record: ASPD+ApoE4 treated cells plus PKC activator. The procedure:
(§1) Human SH-SY5Y neuroblastoma cells (Sigma-Aldrich), were cultured in 45% F12K, 45% MEM, and 10% FBS. Cells were treated with cholesterol, ASPD, ApoE3/ApoE4+cholesterol, or PKC activators for 24 h. Cholesterol was dissolved in ethanol. ApoE (20 nM) and cholesterol (100 μM) were mixed separately into the cultures. To block the ApoE receptors, cells were treated with RAP for 30 min before adding ApoE. Human primary neurons (ScienCell Research Laboratories) were plated on poly-L-lysine-coated plates and were maintained in neuronal medium (ScienCell Research Laboratories) supplemented with the neuronal growth supplements (ScienCell Research Laboratories). Half of the culture medium was changed every 3 d and fresh activators were added with every medium change to maintain viable neurons.
qRT-PCR was performed and the results analyzed as described previously (Schmittgen et al., Analyzing real-time PCR data by the comparative C(T) method, Nat. Protoc., 3:1101-1108, 2008; Sen et al., 2012 supra). Total RNA (500 ng) was reverse transcribed using oligo(dT) and Superscript III (Invitrogen) at 50° C. for 1 h. The cDNA products were analyzed using a LightCycler 480 II (Roche) PCR machine and LightCycler 480 SYBR Green 1 master mix following the manufacturer's protocol. […]

The test system of another series is HDAC6. The series can be described thus: HDAC6 nuclear translocation in SH-SY5Y cells (immunoblot). It counts as cell-based, human. The settings on record: ApoE4+ASPD induced translocation, 24 h. Here is the method:
as §1
A PBS solution of 5×10^6 Human SH-SY5Y neuroblastoma cells was centrifuged and the resultant cell pellet was resuspended and washed twice with cold PBS. After the second wash, the cell pellet was resuspended in 500 μl of hypotonic buffer (20 mM Tris-Cl, pH 7.4, 10 mM NaCl, 3 mM MgCl2, and 1 mM PMSF) and incubated on ice for 15 min. Next, 25 μl of 10% NP-40 was added to the cell suspension and the sample was vortexed for 10 s. The homogenate was centrifuged for 10 min at 1000×g at 4° C. to obtain the cytoplasmic fraction (supernatant) and nuclear fraction (pellet). After removing the supernetant, the nuclear pellet was resuspended in 50 μl of complete cell extraction buffer (100 mM Tris-Cl, pH 7.4, 2 mM Na3VO4, 100 mM NaCl, 1% Triton X-100, 1 mM EDTA, 10% glycerol, 1 mM EGTA, 0.1% SDS, 1 mM NaF, 0.5% deoxycholate, 20 mM Na4P2O7, and 1 mM PMSF) and incubated on ice for 30 min with vortexing at 10 min intervals. The nuclear lysate was centrifuged at 14,000×g for 30 min at 4° C. to obtain the nuclear fraction (supernatant). Protein concentration was measured using the Coomassie Plus (Bradford) Protein Assay kit (Pierce).
Protein in samples of the supernetant and nuclear fractions was separated by SDSPAGE in a 4-20% gradient Tris-Glycine gel (Invitrogen). The protein was then transferred to nitrocellulose membrane. The membrane was blocked with BSA at room temperature for 15 min and incubated with primary antibody overnight at 4° C. After incubation, the membrane was washed thrice (3×) with TBS-T (Tris-buffered saline-Tween 20) and further incubated with alkaline-phosphatase-conjugated secondary antibody (Jackson Immunoresearch Laboratories) at 1:10,000 dilution for 45 min. Following incubation, the membrane was washed 3× with TBS-T and developed using the 1-step NBT-BCIP substrate (Pierce). […] The immunoblot proteins were detected using ImageQuant RT-ECL (GE Life Sciences) and densitometric quantification was performed using IMAL software, which was developed at our institution. […]
A general note: A western blot detects proteins with antibodies after separation by electrophoresis.

The next series has as its system BDNF mRNA. Put plainly: BDNF mRNA expression in SH-SY5Y cells (qRT-PCR). It counts as cell-based, human. Here is the method: as §1
(§2) qRT-PCR was performed and the results analyzed as described previously (Schmittgen et al., Analyzing real-time PCR data by the comparative C(T) method, Nat. Protoc., 3:1101-1108, 2008; Sen et al., 2012 supra). Total RNA (500 ng) was reverse transcribed using oligo(dT) and Superscript III (Invitrogen) at 50° C. for 1 h. The cDNA products were analyzed using a LightCycler 480 II (Roche) PCR machine and LightCycler 480 SYBR Green 1 master mix following the manufacturer's protocol. Primers for PKCε (forward primer: […], reverse primer: […], PKCα (forward-[…], reverse: […]), PKC (forward: […], reverse: CCGATG […]), GAPDH (forward: […], reverse: […]), and BDNF (forward: […], reverse: […]; Origene).
A general note: Real-time PCR tracks product formation cycle by cycle.

The test system of the next series is BDNF-exon IV. The series can be described thus: BDNF-exon IV expression in SH-SY5Y cells (qRT-PCR). It counts as cell-based, human. Here is the method:
as §1, §2
BDNF promoter- and exon specific primers were used as described previously (Pruunsild et al., Dissecting the human BDNF locus: bidirectional transcription, complex splicing, and multiple promoters, Genomics, 90:397-406, 2007). BDNF-promotor I (PI) (forward: […], reverse: […]), BDNF-promotor II (PII) (forward: […], reverse: […]), BDNF-promotor III (PIII) (forward: […], reverse: […]), BDNF-promoter (IV) (PIV) (forward: […], reverse: […]), BDNF-promoter IX (PIX) (forward: […], reverse: […]) were from Invitrogen. […]

In another series the test system is HDAC4. The series can be described thus: HDAC4 nuclear translocation in SH-SY5Y cells (immunoblot). It counts as cell-based, human. The conditions noted are these: ApoE4+ASPD induced translocation, 24 h. The procedure:
as §1
A PBS solution of 5×10^6 Human SH-SY5Y neuroblastoma cells was centrifuged and the resultant cell pellet was resuspended and washed twice with cold PBS. After the second wash, the cell pellet was resuspended in 500 μl of hypotonic buffer (20 mM Tris-Cl, pH 7.4, 10 mM NaCl, 3 mM MgCl2, and 1 mM PMSF) and incubated on ice for 15 min. Next, 25 μl of 10% NP-40 was added to the cell suspension and the sample was vortexed for 10 s. The homogenate was centrifuged for 10 min at 1000×g at 4° C. to obtain the cytoplasmic fraction (supernatant) and nuclear fraction (pellet). […] Protein concentration was measured using the Coomassie Plus (Bradford) Protein Assay kit (Pierce).
Protein in samples of the supernetant and nuclear fractions was separated by SDSPAGE in a 4-20% gradient Tris-Glycine gel (Invitrogen). […] The immunoblot proteins were detected using ImageQuant RT-ECL (GE Life Sciences) and densitometric quantification was performed using IMAL software, which was developed at our institution. […]

Series [4] has as its system HDAC6-BDNF PIII association. Put plainly: ChIP: HDAC6 association with BDNF promoter III. It counts as cell-based, human. The procedure: as §1
(§3) BDNF promoter- and exon specific primers were used as described previously (Pruunsild et al., Dissecting the human BDNF locus: bidirectional transcription, complex splicing, and multiple promoters, Genomics, 90:397-406, 2007). […]
(§4) ChIP was conducted using the SimpleChlP Enzymatic Chromatin IP kit (Cell Signaling Technology) following the manufacturer's protocol. […] The cumulative fluorescence for each amplicon was normalized to input DNA. […]

Series [5] has as its system HDAC6-BDNF PIV association. The series can be described thus: ChIP: HDAC6 association with BDNF promoter IV. It counts as cell-based, human. The procedure: as §1, §3, §4

Molecules are shown by their SMILES.

As for `CCC/C=C/C=C/C(=O)O[C@H]1/C(=C/C(=O)OC)C[C@H]2C[C@H]([C@@H](C)O)OC(=O)C[C@H](O)C[C@@H]3C[C@H](OC(C)=O)C(C)(C)[C@](O)(C[C@@H]4C/C(=C/C(=O)OC)C[C@H](/C=C/C(C)(C)[C@]1(O)O2)O4)O3` [Bryostatin-1], in series [1] (blood), the “t1/2 in the blood stream” value is 1 h. For the same compound, in series [1] (in vivo), the “crossing of the blood-brain barrier” value is “crosses the blood-brain barrier”. In series [1] (intravenous injection, 100 hrs), the “part of initial dose in the blood at 100 hrs” value is listed as 1%. In addition, the “time detectable in the blood after a single injection” value in [1] (single injection) is reported as 14 days. At PKCε [2], the “synthesis of PKCε” value is listed as “increases the synthesis of PKCε” and the “time of highest PKCε levels post administration” value came to 1 h. Further, the “PKCε expression and levels in the brain” value at PKCε [3] is “activate PKCε expression and increase PKCε levels in the brain of mice”.
In the case of `CCCCCC1CC1CC1CC1CCCCCCCC(=O)OC` (centres unmarked) [DCPLA-ME, DCPLA methyl ester], the “PKCε mRNA levels” value in the series with PKCε mRNA turned out to be 0.95±0.09 fold. Besides, the “reduction in nuclear HDAC6” value with HDAC6 was 56±5.9%. The BDNF expression stood at 0.95±0.1 in the series with BDNF mRNA (cells treated with ApoE4+Chol+DCPLA-ME) and 1.91±0.21 fold in the series with BDNF mRNA (cholesterol treated cells). Besides, the “BDNF-exon IV expression” value worked out at 1.98±0.13 with BDNF-exon IV (ApoE3+Chol+DCPLA-ME), 0.74±0.01 in the series with BDNF-exon IV (ApoE4+Chol+DCPLA-ME) and 1.85±0.27 fold with BDNF-exon IV (DCPLA-ME+Chol). Further, in the series with HDAC4, the “reduction of nuclear import of HDAC4” value amounted to 35±6.9%. Moreover, the “effect on ApoE4+Chol induced HDAC6-PIII association” value in series [4] was “blocked the ApoE4+Chol induced increase”. The “effect on ApoE4+Chol induced HDAC6-PIV association” value in [5] was “blocked the ApoE4+Chol induced increase”.
